According to ChEMBL document CHEMBL1124312, “Perfluoro-N-[4-(1H-tetrazol-5-ylmethyl)phenyl]alkanamides. A new class of oral antidiabetic agents” (J Med Chem, 1989):
Values joined by “and” are separate entries in the source; they are usually repeats but may differ in a detail not shown here. Equal values may be shown once.

What was measured:
Assay type in all cases: functional, organism-based
Mus musculus [1] = experiment: Activity of perorally administered compound at a dose of 75 mg/kg for 4 days against plasma glucose in obese mice; parameters: dose 75 mg/kg
Mus musculus [2] = experiment: Activity of perorally administered compound at a dose of 20 mg/kg for 4 days against plasma glucose in obese mice; parameters: dose 20 mg/kg
Mus musculus [3] = experiment: Activity of perorally administered compound at a dose of 20 mg/kg for 4 days against plasma insulin in obese mice; parameters: dose 20 mg/kg
Mus musculus [4] = experiment: Activity of perorally administered compound at a dose of 75 mg/kg for 4 days against plasma glucose in diabetic mice; parameters: dose 75 mg/kg
Mus musculus [5] = experiment: Activity of perorally administered compound at a dose of 20 mg/kg for 10 days against plasma glucose in diabetic mice; parameters: dose 20 mg/kg
Mus musculus [6] = experiment: Activity of perorally administered compound at a dose of 20 mg/kg for 10 days against plasma insulin in diabetic mice; parameters: dose 20 mg/kg
Mus musculus [7] = experiment: Activity of perorally administered compound at a dose of 75 mg/kg for 4 days against plasma insulin in diabetic mice; parameters: dose 75 mg/kg

Row | Structure (SMILES) | Plasma glucose (Mus musculus [1]) | Plasma glucose (Mus musculus [2]) | Plasma insulin (Mus musculus [3]) | Plasma glucose (Mus musculus [4]) | Plasma glucose (Mus musculus [5]) | Plasma insulin (Mus musculus [6]) | Plasma insulin (Mus musculus [7])
1 | O=C(Nc1ccc(Cc2nnn[nH]2)cc1)C(F)(F)C(F)(F)C(F)(F)C(F)(F)C(F)(F)C(F)(F)C(F)(F)C(F)(F)F | 106 mg/dL | 128 mg/dL | – | – | – | – | –
2 | O=C(Nc1ccc(Cc2nnn[nH]2)cc1)C(F)(F)C(F)(F)F | 120 mg/dL | 198 mg/dL | – | – | – | – | –
3 | O=C(Nc1ccc(Cc2nn[nH]n2)cc1)C(F)(F)C(F)(F)C(F)(F)C(F)(F)C(F)(F)C(F)(F)C(F)(F)F | 87 mg/dL | 111 mg/dL and 119 mg/dL | 140 µU/mL | 163 mg/dL | 256 mg/dL | 14 µU/mL | 32 µU/mL
4 | O=C(Nc1ccc(Cc2nnn[nH]2)cc1)C(F)(F)C(F)(F)C(F)(F)C(F)(F)C(F)(F)C(F)(F)C(F)(F)C(F)F | 93 mg/dL | 108 mg/dL | – | 124 mg/dL | – | – | 34 µU/mL
5 | O=C(Nc1ccc(Cc2nnnn2Cc2ccccc2)cc1)C(F)(F)C(F)(F)C(F)(F)C(F)(F)C(F)(F)C(F)(F)C(F)(F)F | – | 152 mg/dL | 249 µU/mL | – | – | – | –
6 | O=C(Nc1ccc(Cc2nnn[nH]2)cc1)C(F)(F)C(F)(F)C(F)(F)C(F)(F)C(F)(F)C(F)(F)F | 162 mg/dL | 231 mg/dL | – | – | – | – | –
7 | O=C(Nc1ccc(Cc2nnn[nH]2)cc1)C(F)(F)F | 138 mg/dL | 273 mg/dL | – | – | – | – | –
8 | O=C(Nc1ccc(Cc2nnn[nH]2)cc1)C(F)(F)C(F)(F)C(F)(F)C(F)(F)C(F)(F)C(F)(F)C(F)(F)C(F)(F)C(F)(F)C(F)F | 118 mg/dL | 123 mg/dL | – | – | – | – | –
9 | O=C(Nc1ccc(Cc2nnn[nH]2)cc1)C(F)(F)C(F)(F)C(F)(F)C(F)(F)C(F)(F)C(F)(F)C(F)(F)C(F)(F)C(F)(F)F | 144 mg/dL | 133 mg/dL | – | – | – | – | –
10 | CC1(COc2ccc(CC3SC(=O)NC3=O)cc2)CCCCC1 (stereo not drawn) | 107 mg/dL | 191 mg/dL | – | 348 mg/dL | 320 mg/dL | 20 µU/mL | 25 µU/mL
11 | O=C(Nc1ccc(Cc2nnn[nH]2)cc1)C(F)(F)C(F)(F)C(F)(F)C(F)(F)F | 170 mg/dL | 207 mg/dL | – | – | – | – | –
12 | O=C(Nc1ccc(Cc2nnn(Cc3ccccc3)n2)cc1)C(F)(F)C(F)(F)C(F)(F)C(F)(F)C(F)(F)C(F)(F)C(F)(F)F | – | 119 mg/dL | 204 µU/mL | – | – | – | –
13 | O=C(Nc1ccc(Cc2nn[nH]n2)cc1)C(F)(F)C(F)(F)C(F)(F)F | 100 mg/dL | 213 mg/dL | – | – | 307 mg/dL | 19 µU/mL | –
14 | CN(C(=O)C(F)(F)C(F)(F)C(F)(F)C(F)(F)C(F)(F)C(F)(F)C(F)(F)F)c1ccc(Cc2nnn(C)n2)cc1 | – | 128 mg/dL | 205 µU/mL | – | – | – | –
15 | CN(C(=O)C(F)(F)C(F)(F)C(F)(F)C(F)(F)C(F)(F)C(F)(F)C(F)(F)F)c1ccc(Cc2nnnn2C)cc1 | – | 119 mg/dL | 204 µU/mL | – | – | – | –
